As a reminder, the DC50 is the concentration at which degradation of the target reaches its halfway point.

The first experiment deals with T1, PIP4K2C (Homo sapiens, UniProt Q8TBX8).
T1 sequence (Q8TBX8 1-421): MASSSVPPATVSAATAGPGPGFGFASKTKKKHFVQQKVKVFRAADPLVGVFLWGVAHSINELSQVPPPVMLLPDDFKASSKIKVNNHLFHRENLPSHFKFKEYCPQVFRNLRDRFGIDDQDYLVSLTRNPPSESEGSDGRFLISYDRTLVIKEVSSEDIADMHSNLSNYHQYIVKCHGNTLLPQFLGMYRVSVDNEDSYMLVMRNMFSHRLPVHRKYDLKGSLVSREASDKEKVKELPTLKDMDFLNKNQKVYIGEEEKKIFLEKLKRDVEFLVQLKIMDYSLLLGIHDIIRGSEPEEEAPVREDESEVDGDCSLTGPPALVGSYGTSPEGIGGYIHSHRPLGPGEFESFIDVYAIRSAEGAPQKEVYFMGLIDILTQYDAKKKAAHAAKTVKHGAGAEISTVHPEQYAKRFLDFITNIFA
As to the kind of experiment: HiBiT PIP4K2C degradation assay in MOLT-4 cells (endogenous PIP4K2C C-terminally tagged with HiBiT). In kind it is cell-based. Set-up: untagged in primary human PBMCs and monocyte-derived dendritic cells. Particulars: 6 hours of incubation time, rather than 24 hours; MOLT-4, top concentration 10 micromolar; read-out: HiBIT-degradation MOLT4 PIP4k2C DC50 (6 hours, marked *). The source says: Example B-2: HiBiT PIP4K2C degradation assay
Materials: MOLT-4, a human T lymphoblast cell line (see https://www.atcc.org/products/crl-1582, herein incorporated by reference in its entirety), was genetically engineered using CRISPR-Cas9 by Synthego Corporation (Redwood City, CA) to C-terminally tag endogenous PIP4K2C with HiBiT peptide. Following clonal selection, genotype was confirmed by Sanger sequencing. MO LT-4 were maintained using RPMI-1640 medium from Gibco (Grand Island, NY, catalog number 11875-085) supplemented with 10% fetal bovine serum (FBS) from VWR (Philadelphia, PA, catalog number 97068-085). For HiBiT assays the cells were resuspended in RPMI-1640 medium without phenol read from Gibco (Grand Island, NY, catalog number 11835-030) supplemented with 10% FBS. Nano-Glo® HiBiT Lytic Assay System was purchased from Promega (Madison, WI, Catalog number N3030). Cell culture flasks and 384-well microplates were purchased from Corning (Glendale, AZ).
To study PIP4K2C degradation, 384-well plates were plated with a 10-point dose response curve, 3-fold dilution, in duplicate with a top starting concentration of 10 micromolar. Subsequently 22,500 cells were added to each well and incubated at 37 C in 5% C02 for 24 hours or 6 hours. At the end of the incubation time, cells were treated with the Nano-Glo® HiBiT Lytic Detection System following the manufacturer's instructions. Luminescence was measured with a PHERAstar FSX plate reader (BMG Labtech, Cary, NC). The Levenberg-Marquardt algorithm was used to fit a Hill equation to dose-response data to calculate DC50 values (see Table 6).
On the technique in general: The HiBiT peptide binds its large partner to form an active luciferase.
Take `O=C1CCC(Nc2ccc(N3CCC(CN4CCC(C(=O)N[C@H]5CC[C@H](Nc6ncc(F)c(-c7cccc(-n8ccccc8=O)c7)n6)CC5)CC4)CC3)c(F)c2)C(=O)N1` (mixture of isomers) [Compound 433, 1-((1-(4-((2,6-dioxopiperidin-3-yl)amino)-2-fluorophenyl)piperidin-4-yl)methyl)-N-((1r,4r)-4-((5-fluoro-4-(3-(2-oxopyridin-1(2H)-yl)phenyl)pyrimidin-2-yl)amino)cyclohexyl)piperidine-4-carboxamide]: the DC50 was less than 500 nM. Still for that read-out and setting: as for `Cn1nc(C2CCC(=O)NC2=O)c2ccc(C3CCN(CCN4CCC(C(=O)N[C@H]5CC[C@H](Nc6ncc(F)c(-c7cccc(-n8ccccc8=O)c7)n6)CC5)CC4)CC3)cc21` (mixture of isomers) [Compound 534, 1-(2-(4-(3-(2,6-dioxopiperidin-3-yl)-1-methyl-1H-indazol-6-yl)piperidin-1-yl)ethyl)-N-((1r,4r)-4-((5-fluoro-4-(3-(2-oxopyridin-1(2H)-yl)phenyl)pyrimidin-2-yl)amino)cyclohexyl)piperidine-4-carboxamide], the figure is less than 500 nM.

The same experiment, now with this note: 24 hours incubation, MOLT-4, top concentration 10 micromolar; read-out: HiBIT-degradation MOLT4 PIP4k2C 24 hours DC50.
In the case of `Cn1c(=O)n(C2CCC(=O)NC2=O)c2ccc(C3CCN(CCN4CCN(C(=O)[C@H]5CCC[C@@H](Nc6ncc(Cl)c(-c7cccc(-c8ccccc8)c7)n6)C5)CC4)CC3)cc21` (relative stereo) [Compound 49, cis-3-(5-(1-(2-(4-(3-((4-([1,1′-biphenyl]-3-yl)-5-chloropyrimidin-2-yl)amino)cyclohexane-1-carbonyl)piperazin-1-yl)ethyl)piperidin-4-yl)-3-methyl-2-oxo-2,3-dihydro-1H-benzo[d]imidazol-1-yl)piperidine-2,6-dione], the DC50 was less than 500 nM. In the case of `Cn1c(=O)n(C2CCC(=O)NC2=O)c2ccc(C3CCN(CC(=O)N4CCN(C(=O)[C@H]5CCC[C@@H](Nc6ncc(Cl)c(-c7cccc(-c8ccccc8)c7)n6)C5)CC4)CC3)cc21` (relative stereo) [Compound 51, cis-3-(5-(1-(2-(4-(3-((4-([1,1′-biphenyl]-3-yl)-5-chloropyrimidin-2-yl)amino)cyclohexane-1-carbonyl)piperazin-1-yl)-2-oxoethyl)piperidin-4-yl)-3-methyl-2-oxo-2,3-dihydro-1H-benzo[d]imidazol-1-yl)piperidine-2,6-dione], the DC50 was less than 500 nM. For the compound `Cn1c(=O)n(C2CCC(=O)NC2=O)c2ccc(C3CCN(CCC4CCN(C(=O)[C@H]5CCC[C@@H](Nc6ncc(Cl)c(-c7cccc(-c8ccccc8)c7)n6)C5)CC4)CC3)cc21` (relative stereo) [Compound 52, cis-3-(5-(1-(2-(1-(3-((4-([1,1′-biphenyl]-3-yl)-5-chloropyrimidin-2-yl)amino)cyclohexane-1-carbonyl)piperidin-4-yl)ethyl)piperidin-4-yl)-3-methyl-2-oxo-2,3-dihydro-1H-benzo[d]imidazol-1-yl)piperidine-2,6-dione], the DC50 was less than 500 nM.

Take `O=C1CCC(N2Cc3cc(C4CCN(CC(=O)N5CCN(C(=O)[C@H]6CCC[C@@H](Nc7ncc(Cl)c(-c8cccc(-c9ccccc9)c8)n7)C6)CC5)CC4)ccc3C2=O)C(=O)N1` (relative stereo) [Compound 54, cis-3-(5-(1-(2-(4-(3-((4-([1,1′-biphenyl]-3-yl)-5-chloropyrimidin-2-yl)amino)cyclohexane-1-carbonyl)piperazin-1-yl)-2-oxoethyl)piperidin-4-yl)-1-oxoisoindolin-2-yl)piperidine-2,6-dione]: the DC50 was less than 500 nM. On to `O=C1CCC(Nc2ccc(C3CCN(CCN4CCN(C(=O)[C@H]5CCC[C@@H](Nc6ncc(Cl)c(-c7cccc(-c8ccccc8)c7)n6)C5)CC4)CC3)cc2)C(=O)N1` (relative stereo) [Compound 55, cis-3-((4-(1-(2-(4-(3-((4-([1,1′-biphenyl]-3-yl)-5-chloropyrimidin-2-yl)amino)cyclohexane-1-carbonyl)piperazin-1-yl)ethyl)piperidin-4-yl)phenyl)amino)piperidine-2,6-dione], for which the DC50 lay within 500 to 1000 nM.
